Measurements as given in patent publication US8389523B2, “Substituted quinoxaline and an agrochemical composition thereof” (Kumiai Chemical Industry Co., Ltd., priority 2007, dated 2013).

What was measured:
Type in all cases: in vivo
Design in all cases: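 grade 0 to 5 of growth suppression where 5 is 90% or more and 0 below 10%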
[1] = test system: Scirpus juncoides Roxb. var. ohwianus. T. Koyama; assay: Herbicidal effects in paddy field soil treatment (Test Example 1); conditions: paddy field soil treatment; 1000 g of the active ingredient per hectare; wettable powder added dropwise on water surface; 21st day after treatment
How it was run: (§1)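 Seeds sown in puddled paddy soil, waterlogged to 3 cm depth; next day a diluted wettable powder applied dropwise to the water surface at 1000 g active ingredient per hectare. Herbicidal effect scored 21 days after treatment in a greenhouse.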

[2] = test system: Monochoria vaginalis (Burm. f.) Presl var. plantaginea (Roxb.) Solms-Laub.; assay: as above; conditions: paddy field soil treatment; 1000 g of the active ingredient per hectare; wettable powder added dropwise on water surface; 21st day after treatment
How it was run: as §1

[3] = test system: Echinochloa oryzicola Vasing; assay: as above; conditions: paddy field soil treatment; 1000 g of the active ingredient per hectare; wettable powder added dropwise on water surface; 21st day after treatment
How it was run: as §1

[4] = test system: Abutilon theophrasti medicus; assay: Herbicidal effects in upland field soil treatment (Test Example 2); conditions: 1000 g active ingredient per hectare, 21st day after treatment, criteria of Table 138
How it was run: (§2)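 Pre-emergence test: seeds sown in upland soil, then soil surface sprayed with diluted wettable powder at 1000 g active ingredient per hectare (1000 liters per hectare). Greenhouse growth; herbicidal effect scored on day 21 against set criteria.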

Amaranthus viridis L. [5] = assay: as above; conditions: 1000 g active ingredient per hectare, 21st day after treatment, criteria of Table 138
How it was run: as §2

[6] = test system: Echinochloa crus-galli (L.) P. Beauv. var. crus-galli; assay: Herbicidal effects in upland field foliar treatment (Test Example 3); conditions: criteria of Table 138; for herbicidal effect (index) on Echinochloa crus-galli (L.) P. Beauv. var. crus-galli: 1000 g active ingredient per hectare, 14th day after treatment; for herbicidal effects on Echinochloa crus-galli (L.) P. Beauv. var. crus-galli: 1000 g of the active ingredient per hectare, 14th day after the treatment, wettable powder
How it was run: (§3)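 Plants grown two weeks from seed in upland soil in a greenhouse, then sprayed overall with water-diluted wettable powder at 1000 L/ha delivering 1000 g active ingredient/ha. Herbicidal effect scored by rating criteria 14 days after treatment.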

[7] = test system: Abutilon theophrasti medicus; assay: as above; conditions: criteria of Table 138; for herbicidal effect (index) on Abutilon theophrasti medicus: 1000 g active ingredient per hectare, 14th day after treatment; for herbicidal effects on Abutilon theophrasti medicus: 1000 g of the active ingredient per hectare, 14th day after the treatment, wettable powder
How it was run: as §3

Amaranthus viridis L. [8] = assay: as above; conditions: criteria of Table 138; for herbicidal effect (index) on Amaranthus viridis L.: 1000 g active ingredient per hectare, 14th day after treatment; for herbicidal effects on Amaranthus viridis L.: 1000 g of the active ingredient per hectare, 14th day after the treatment, wettable powder
How it was run: as §3

Cn1c(=O)c(C(=O)C2=C(O)CCCC2=O)nc2ccc(Cl)cc21 [I-227]
5: Herbicidal effects index, Scirpus juncoides Roxb. var. ohwianus. T. Koyama [1] | Herbicidal effects index, Monochoria vaginalis (Burm. f.) Presl var. plantaginea (Roxb.) Solms-Laub. [2] | Herbicidal effects index, Echinochloa oryzicola Vasing [3] | herbicidal effect (index) on Abutilon theophrasti medicus [4] | herbicidal effect (index) on Amaranthus viridis L. (Amaranthus viridis L. [5]) | herbicidal effect (index) on Abutilon theophrasti medicus [7] | herbicidal effect (index) on Amaranthus viridis L. (Amaranthus viridis L. [8])
4: herbicidal effect (index) on Echinochloa crus-galli (L.) P. Beauv. var. crus-galli [6]

N#CCn1c(=O)c(C(=O)C2=C(O)CCCC2=O)nc2ccccc21 [Compound I-102]
5: Herbicidal effects index, Scirpus juncoides Roxb. var. ohwianus. T. Koyama [1] | Herbicidal effects index, Echinochloa oryzicola Vasing [3] | herbicidal effect (index) on Abutilon theophrasti medicus [4] | herbicidal effect (index) on Amaranthus viridis L. (Amaranthus viridis L. [5]) | herbicidal effect (index) on Echinochloa crus-galli (L.) P. Beauv. var. crus-galli [6] | herbicidal effect (index) on Abutilon theophrasti medicus [7] | herbicidal effect (index) on Amaranthus viridis L. (Amaranthus viridis L. [8])
4: Herbicidal effects index, Monochoria vaginalis (Burm. f.) Presl var. plantaginea (Roxb.) Solms-Laub. [2]

O=C(C1=C(O)C2CCC(C2)C1=O)c1nc2ccccc2n(COCC(F)(F)F)c1=O (stereo not shown) [I-62]
5: Herbicidal effects index, Scirpus juncoides Roxb. var. ohwianus. T. Koyama [1] | Herbicidal effects index, Monochoria vaginalis (Burm. f.) Presl var. plantaginea (Roxb.) Solms-Laub. [2] | Herbicidal effects index, Echinochloa oryzicola Vasing [3] | herbicidal effect (index) on Abutilon theophrasti medicus [4] | herbicidal effect (index) on Amaranthus viridis L. (Amaranthus viridis L. [5]) | herbicidal effect (index) on Echinochloa crus-galli (L.) P. Beauv. var. crus-galli [6] | herbicidal effect (index) on Abutilon theophrasti medicus [7] | herbicidal effect (index) on Amaranthus viridis L. (Amaranthus viridis L. [8])

O=C1CCCC(O)=C1C(=O)c1nc2ccccc2n(-c2nccs2)c1=O [I-159]
5: Herbicidal effects index, Scirpus juncoides Roxb. var. ohwianus. T. Koyama [1] | Herbicidal effects index, Monochoria vaginalis (Burm. f.) Presl var. plantaginea (Roxb.) Solms-Laub. [2] | Herbicidal effects index, Echinochloa oryzicola Vasing [3] | herbicidal effect (index) on Abutilon theophrasti medicus [4] | herbicidal effect (index) on Amaranthus viridis L. (Amaranthus viridis L. [5]) | herbicidal effect (index) on Abutilon theophrasti medicus [7] | herbicidal effect (index) on Amaranthus viridis L. (Amaranthus viridis L. [8])
4: herbicidal effect (index) on Echinochloa crus-galli (L.) P. Beauv. var. crus-galli [6]

O=C1CCCC(O)=C1C(=O)c1nc2ccccc2n(-c2ccc3c(c2)CCO3)c1=O [I-201]
4: herbicidal effect (index) on Abutilon theophrasti medicus [4] | herbicidal effect (index) on Abutilon theophrasti medicus [7]
5: Herbicidal effects index, Scirpus juncoides Roxb. var. ohwianus. T. Koyama [1] | Herbicidal effects index, Monochoria vaginalis (Burm. f.) Presl var. plantaginea (Roxb.) Solms-Laub. [2] | Herbicidal effects index, Echinochloa oryzicola Vasing [3] | herbicidal effect (index) on Amaranthus viridis L. (Amaranthus viridis L. [5]) | herbicidal effect (index) on Echinochloa crus-galli (L.) P. Beauv. var. crus-galli [6] | herbicidal effect (index) on Amaranthus viridis L. (Amaranthus viridis L. [8])

Cn1nc(C(F)(F)F)cc1-n1c(=O)c(C(=O)C2=C(O)CCCC2=O)nc2ccccc21 [I-158]
5: Herbicidal effects index, Scirpus juncoides Roxb. var. ohwianus. T. Koyama [1] | Herbicidal effects index, Monochoria vaginalis (Burm. f.) Presl var. plantaginea (Roxb.) Solms-Laub. [2] | Herbicidal effects index, Echinochloa oryzicola Vasing [3] | herbicidal effect (index) on Abutilon theophrasti medicus [4] | herbicidal effect (index) on Amaranthus viridis L. (Amaranthus viridis L. [5]) | herbicidal effect (index) on Echinochloa crus-galli (L.) P. Beauv. var. crus-galli [6] | herbicidal effect (index) on Abutilon theophrasti medicus [7] | herbicidal effect (index) on Amaranthus viridis L. (Amaranthus viridis L. [8])

O=C1CCCC(O)=C1C(=O)c1nc2ccccc2n(-c2ccc(OC(F)F)cc2)c1=O [II-95]
5: Herbicidal effects index, Scirpus juncoides Roxb. var. ohwianus. T. Koyama [1] | Herbicidal effects index, Monochoria vaginalis (Burm. f.) Presl var. plantaginea (Roxb.) Solms-Laub. [2] | Herbicidal effects index, Echinochloa oryzicola Vasing [3] | herbicidal effect (index) on Abutilon theophrasti medicus [4] | herbicidal effect (index) on Amaranthus viridis L. (Amaranthus viridis L. [5]) | herbicidal effects on Echinochloa crus-galli (L.) P. Beauv. var. crus-galli [6] | herbicidal effects on Abutilon theophrasti medicus [7] | herbicidal effects on Amaranthus viridis L. (Amaranthus viridis L. [8])

O=C1CCCC(O)=C1C(=O)c1nc2ccccc2n(-c2ccc3c(c2)CCC3)c1=O [II-222]
5: Herbicidal effects index, Scirpus juncoides Roxb. var. ohwianus. T. Koyama [1] | Herbicidal effects index, Monochoria vaginalis (Burm. f.) Presl var. plantaginea (Roxb.) Solms-Laub. [2] | Herbicidal effects index, Echinochloa oryzicola Vasing [3] | herbicidal effect (index) on Abutilon theophrasti medicus [4] | herbicidal effect (index) on Amaranthus viridis L. (Amaranthus viridis L. [5]) | herbicidal effects on Echinochloa crus-galli (L.) P. Beauv. var. crus-galli [6] | herbicidal effects on Abutilon theophrasti medicus [7] | herbicidal effects on Amaranthus viridis L. (Amaranthus viridis L. [8])
